This is an account of results in patent US20260327211A1, “MODULATORS OF A POTASSIUM CHANNEL AND OF TRPV1 CHANNEL AND USES THEREOF” (Bsense Bio Therapeutics Ltd., priority 2023, published 2026).

Series [1] concerns the target T1, hTRPV1 (Homo sapiens, UniProt Q8NER1).
T1 construct: CDS of NM_080704.4, inserted into the multiple cloning site of pcDNA3.1(+); host or cells: CHO/hKv7.2/3
As to the kind of experiment: hTRPV1 dual activity electrophysiology, CHO cells co-expressing hKv7.2/3 and hTRPV1. In kind it is cell-based.

Series [2] in a line: HepG2 toxicity, ATPlite. The series is classed as cell-based, human. The following applies: human, hepg2 cells; 48 hours; read-out: HepG2 Toxicity LD50. The procedure:
Cell culture: HepG2 cell-line cells were cultured in EMEM (ATCC 30-2033) medium supplemented with 10% fetal bovine serum (Biological Industries) in a humidified 5% CO2 incubator at 37° C.
ATPlite™ 1step Kit: ATPlite™ 1step kit (PerkinElmer) was used in a 384-wells format to assess potential liver toxicity using HepG2 cells. This is an ATP detection system based on firefly luciferase luminescence for the quantitative evaluation of proliferation and cytotoxicity of cells. ATP is a marker for cell viability because it is present in all metabolically active cells and its concentration declines very rapidly when the cells undergo necrosis or apoptosis.
According to an optimization process done to achieve uniform and consistent screening condition of molecules, the following protocol was established: Cells were seeded in 384-well, black-walled, clear-bottomed, at a density of 4000 cells per well […] and incubated overnight in their normal growth medium. On day two (48 hours before viability measurement), the tested compounds and the positive control were applied to the wells according to the plate design. […] 48 hours later, reconstituted lyophilized substrate solution was added to each well and the sealed 384-well microplate was mixed for 2 minutes at 1100 rpm in an orbital microplate and plates were incubated for 10 minutes in the dark at room temperature. Right after, luminescence was measured in the Tecan plate reader. To estimate the LD50 and LD25 values the data was fitted to sigmoidal regression using Prism-GraphPad. […]
On the technique in general: Cellular ATP, detected with luciferase, serves as a proxy for viable cell number.

Series [3] in a line: Rat liver microsome metabolic stability. The series is classed as in vitro ADME. Particulars: rat liver microsomes; for half-life at 1 µM: read-out: RLM T1/2. From the text: Liver microsomes which are subcellular particles derived from endoplasmic reticulum of hepatic cells were used for evaluating the tested compounds. These particles are rich in drug metabolizing enzymes, including the cytochrome p-450 family. Liver microsomes are a recommended test system for various in vitro drug metabolism and pharmacokinetics (DMPK) studies. CLint values lower than […] are considered suitable for drug development.
Liver Microsome Metabolic Stability Assay (NADPH): The liver microsome stability assay was evaluated through pre-incubation with HLMs. A liver microsome mixture (pooled from multiple donors) at a concentration of 0.5 mg/mL, and the test compound at a concentration of 1 μM, were warmed in the presence of a NADPH regenerating system (about 1.0 mM) at 37° C. Positive controls, including testosterone (a CYP3A4 substrate), propafenone (a CYP2D6 substrate), and diclofenac (a CYP2C9) substrate, were concurrently incubated with the HLMs, in the presence of the NADPH regenerating system (1.0 mM). Samples were extracted during incubation at multiple intervals: 0, 5, 15, 30, 45 and 60 minutes. To terminate the reactions, the samples were promptly mixed with cooled acetonitrile that included an internal standard (IS). An additional compound was incubated with the HLMs in the absence of the NADPH regeneration system, from which a sample was taken at the 60-minute interval.
The clearance of the test compound in the samples was subsequently analyzed by LC-MS/MS based on the peak area ratios of the analyte to the IS.
The following equation was used to calculate the microsome clearance: […]
Liver weight: 40 grams/kg, 30 grams/kg, 32 grams/kg, 20 grams/kg and 88 grams/kg, for rat, monkey, dog, human and mouse, respectively.
In general terms: Liver microsomes are vesicles of endoplasmic reticulum, rich in cytochrome P450 enzymes.

The mark [4] stands for this setting: Dual hTRPV1 / Dual Expressing CHO, CAP IC50, Kv7.2/3 co-expressed and activated, capsaicin.

Values joined by “and” are separate entries in the source; they are usually repeats but may differ in a detail not shown here. Equal entries are not always repeated.

T1 sequence (Q8NER1 whole entry): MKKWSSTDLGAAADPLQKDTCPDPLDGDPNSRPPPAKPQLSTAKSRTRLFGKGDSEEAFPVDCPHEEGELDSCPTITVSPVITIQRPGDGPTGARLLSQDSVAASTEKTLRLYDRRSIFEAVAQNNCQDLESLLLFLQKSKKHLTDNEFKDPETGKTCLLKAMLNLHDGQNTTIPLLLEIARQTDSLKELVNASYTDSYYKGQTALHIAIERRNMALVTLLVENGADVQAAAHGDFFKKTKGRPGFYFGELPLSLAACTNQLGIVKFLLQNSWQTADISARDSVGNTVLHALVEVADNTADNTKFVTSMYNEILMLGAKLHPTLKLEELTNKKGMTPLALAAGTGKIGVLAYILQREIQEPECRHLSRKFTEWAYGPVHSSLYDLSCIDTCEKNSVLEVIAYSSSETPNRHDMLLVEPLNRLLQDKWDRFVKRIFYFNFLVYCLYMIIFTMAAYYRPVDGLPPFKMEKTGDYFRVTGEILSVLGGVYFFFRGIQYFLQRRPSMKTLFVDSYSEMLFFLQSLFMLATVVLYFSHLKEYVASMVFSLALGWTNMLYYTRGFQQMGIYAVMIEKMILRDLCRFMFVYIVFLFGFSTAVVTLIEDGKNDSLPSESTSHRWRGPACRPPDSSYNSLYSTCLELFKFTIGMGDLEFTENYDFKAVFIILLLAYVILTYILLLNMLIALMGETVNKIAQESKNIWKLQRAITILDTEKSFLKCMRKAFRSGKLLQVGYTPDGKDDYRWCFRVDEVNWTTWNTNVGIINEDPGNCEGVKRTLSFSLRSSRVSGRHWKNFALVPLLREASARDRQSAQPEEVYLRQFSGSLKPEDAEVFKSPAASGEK

As a reminder, the IC50 is the concentration at which inhibition is half-maximal. Low values mean inhibition by little substance, high ones a need for much substance. As to `O=C(Cc1ccnc(-n2cc(Cl)c3cc(Cl)cc(Cl)c32)n1)N[C@@H]1COC[C@H]1O` [Compound 820], the midpoint of inhibition in series [1] (setting [4]), the IC50, lay at 48 nM.

What is called CLint scaled is the rate of metabolic loss divided by the concentration. Low readings indicate slow turnover, high ones rapid turnover. `O=C(Cc1cncc(-n2cc(Cl)c3cc(Cl)cc(Cl)c32)c1)N[C@@H]1COC[C@H]1O` [Compound 661]: in series [2], the CC50 at 48 h is above 16600 nM. The “TRPV1 inhibition, dual-expressing CHO” value in series [1] (0.01 nM) was “mild inhibition”. In addition, in series [1] (0.1 nM), the “TRPV1 inhibition, dual-expressing CHO” value is “inhibited”. For the same molecule, the half-maximal inhibitory concentration (IC50) in series [1] (setting [4]) is 0.07 nM and 0.068 nM. Besides, in series [1] (cho cells), the “Potency in dual-expressing CHO vs CHO expressing only TRPV1” value is on record as > 200,000 fold. Moreover, in series [3], the CLint scaled at 1 µM came out at 527 mL/min/kg and the half-life at 1 µM is 4.7 min.

As to `O=C(Cc1cc(-n2cc(Cl)c3cc(Cl)cc(Cl)c32)ccc1F)NCCO` [Compound 627], the CC50 at 48 h in series [2] amounted to 3370 nM. In addition, in series [1] (setting [4]), the 50% inhibitory concentration (IC50) is 0.26 nM and 0.27 nM. In addition, in series [3], the CLint scaled at 1 µM came to 63.5 mL/min/kg and the half-life at 1 µM came to 39.3 min.

Consider `Cc1cn(-c2ccc(F)c(CC(=O)NCC(C)(C)O)c2)c2c(Cl)cc(Cl)cc12` [Compound 421], for which, in series [2], the CC50 at 48 h was above 1000 nM. Also, in series [3], the intrinsic metabolic clearance (CLint scaled) at 1 µM turned out to be 177 mL/min/kg and the half-life at 1 µM amounted to 14.1 min.

As usually defined, the inhibition is the change of the read-out against control, counted positive when it falls. `O=C(Cc1nccc(-n2cc(Cl)c3cc(Cl)cc(Cl)c32)n1)NC1COCC1O` (stereo not drawn) [Compound 760]: the inhibition at 100 µM in series [1] (CHO, read-out: hTRPV1 current inhibition) stood at 46 ± 13.7%. Moreover, the half-maximal inhibitory concentration (IC50) was 0.201 nM in series [1] (setting [4]); around 0.1 nM in series [1] (IC50 of hTRPV1 current inhibition in CHOs with both targets co-expressed and activated, EP). The half-life at 1 µM in series [3] was 11.9 min.

`O=C(Cc1cc(-n2cc(C(F)(F)F)c3cc(Cl)cc(Cl)c32)ncn1)NCCO` [Compound 843] yielded an IC50 in series [1] (setting [4]) of 0.528 nM.

Turning to `CC(C)c1cc(Cl)cc(Cl)c1Nc1ccc(F)c(CC(=O)NCC(C)(C)O)c1` [NH91, reference compound], in series [3], the half-life at 1 µM worked out at 2.5 min.
